In ChEMBL document CHEMBL1201862, “PubChem BioAssay data set” (2004):
Active and inactive are the calls of the source.

Assays:
[1] = T. cruzi growth inhibition in host cells, dose response, cell-based, plate reader, dry powder, set 2 (AID 652275); type: functional
[2] = biological target: COUP transcription factor 2 (Homo sapiens, UniProt P24468); assay: Luminescence-based cell-based high throughput dose response assay to identify inhibitors of COUP-TFII (NR2F2).; type: functional;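 also: HEK293 cells transiently cotransfected with COUP-TFII expression vector and reporter; luciferase reporter luminescence driven by COUP-TFII from the pX2-168 reporter plasmid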
COUP transcription factor 2, sequence (P24468 whole entry): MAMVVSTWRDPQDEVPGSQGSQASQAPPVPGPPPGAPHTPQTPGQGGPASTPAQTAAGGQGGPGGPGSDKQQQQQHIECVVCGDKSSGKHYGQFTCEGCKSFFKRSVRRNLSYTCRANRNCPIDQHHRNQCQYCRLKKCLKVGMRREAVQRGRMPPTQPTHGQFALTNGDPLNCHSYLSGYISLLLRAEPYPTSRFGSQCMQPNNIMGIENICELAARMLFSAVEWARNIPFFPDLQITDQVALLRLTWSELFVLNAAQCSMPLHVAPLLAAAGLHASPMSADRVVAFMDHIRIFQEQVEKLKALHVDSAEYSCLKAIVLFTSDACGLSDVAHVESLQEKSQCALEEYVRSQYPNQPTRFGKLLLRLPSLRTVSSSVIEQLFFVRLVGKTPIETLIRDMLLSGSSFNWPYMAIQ

[3] = biological target: T1, Heat shock factor protein 1 (Mus musculus, UniProt P38532); assay: inhibition of MG132-induced HSE-luciferase signal, confirmation, cell-based, NIH3T3, luminescence, dose retest (AID 2382); type: functional;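 also: NIH3T3 fibroblasts with HSF1-driven luciferase reporter stressed by proteasome inhibitor MG132; luminescence from HSF1-driven luciferase expression after 8 hours of MG132 stress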
T1 sequence (P38532 whole entry): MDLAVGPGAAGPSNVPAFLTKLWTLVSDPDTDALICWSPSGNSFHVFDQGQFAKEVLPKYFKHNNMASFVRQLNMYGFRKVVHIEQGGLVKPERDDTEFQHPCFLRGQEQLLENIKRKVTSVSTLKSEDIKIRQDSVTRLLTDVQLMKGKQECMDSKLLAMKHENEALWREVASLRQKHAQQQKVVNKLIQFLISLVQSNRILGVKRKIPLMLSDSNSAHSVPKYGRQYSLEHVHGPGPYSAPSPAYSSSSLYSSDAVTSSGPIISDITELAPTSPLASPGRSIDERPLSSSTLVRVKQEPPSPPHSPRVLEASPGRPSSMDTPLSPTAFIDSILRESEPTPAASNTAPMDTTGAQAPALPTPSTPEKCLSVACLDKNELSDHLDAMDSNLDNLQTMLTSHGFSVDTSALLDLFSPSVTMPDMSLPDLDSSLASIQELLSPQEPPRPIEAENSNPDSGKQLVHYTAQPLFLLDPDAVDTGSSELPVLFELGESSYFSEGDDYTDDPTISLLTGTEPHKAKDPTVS

[4] = biological target: Disintegrin and metalloproteinase domain-containing protein 17 (Homo sapiens, UniProt P78536); assay: ADAM17 protease inhibitors, dose response, counter-screen for ADAM10 exosite inhibitor project, biochemical, quenched FRET substrate (AID 743253)
Disintegrin and metalloproteinase domain-containing protein 17, sequence (P78536 whole entry, the tested form may be a part): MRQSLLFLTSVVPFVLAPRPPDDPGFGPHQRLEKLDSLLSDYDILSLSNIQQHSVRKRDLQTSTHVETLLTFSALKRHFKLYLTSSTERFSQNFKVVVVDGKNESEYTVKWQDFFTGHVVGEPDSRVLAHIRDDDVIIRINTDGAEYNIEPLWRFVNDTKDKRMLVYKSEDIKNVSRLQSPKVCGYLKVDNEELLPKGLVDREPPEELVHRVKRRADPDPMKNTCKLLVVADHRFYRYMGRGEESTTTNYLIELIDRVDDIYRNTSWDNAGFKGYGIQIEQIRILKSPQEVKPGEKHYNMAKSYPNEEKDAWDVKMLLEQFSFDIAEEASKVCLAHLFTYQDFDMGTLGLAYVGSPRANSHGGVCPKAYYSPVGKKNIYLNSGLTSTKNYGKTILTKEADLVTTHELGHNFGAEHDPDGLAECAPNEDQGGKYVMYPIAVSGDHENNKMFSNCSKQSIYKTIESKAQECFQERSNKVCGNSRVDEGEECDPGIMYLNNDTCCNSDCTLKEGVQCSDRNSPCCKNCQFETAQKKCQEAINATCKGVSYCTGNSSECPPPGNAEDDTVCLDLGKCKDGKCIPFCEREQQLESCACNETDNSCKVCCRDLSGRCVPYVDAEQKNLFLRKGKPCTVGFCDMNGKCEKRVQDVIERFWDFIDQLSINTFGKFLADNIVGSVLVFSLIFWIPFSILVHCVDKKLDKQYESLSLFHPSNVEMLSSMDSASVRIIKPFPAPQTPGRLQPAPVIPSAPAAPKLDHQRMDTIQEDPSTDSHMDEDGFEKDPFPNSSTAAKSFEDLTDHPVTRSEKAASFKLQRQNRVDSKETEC

Protein Wnt-3a = Protein Wnt-3a (Mus musculus, UniProt P27467); assay: SAR analysis of small molecule antagonists of Gli-SUFU in a Wnt3a luminescent reporter assay.; type: functional
Protein Wnt-3a, sequence (P27467 whole entry): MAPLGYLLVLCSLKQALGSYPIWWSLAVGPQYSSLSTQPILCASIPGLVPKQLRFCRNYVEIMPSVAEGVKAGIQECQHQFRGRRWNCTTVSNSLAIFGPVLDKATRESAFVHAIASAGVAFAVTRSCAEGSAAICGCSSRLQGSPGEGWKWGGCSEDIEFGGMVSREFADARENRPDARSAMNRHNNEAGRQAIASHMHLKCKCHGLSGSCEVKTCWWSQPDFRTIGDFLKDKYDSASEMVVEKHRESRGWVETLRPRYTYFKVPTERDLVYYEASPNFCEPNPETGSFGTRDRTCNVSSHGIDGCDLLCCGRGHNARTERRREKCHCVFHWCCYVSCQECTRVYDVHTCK

[5] = HEK293T cell cytotoxicity, dose response, cytotoxicity control, luminescence plate reader, powder samples, set 4 (AID 651863); type: functional, cell-based; conditions: HEK293
[6] = HepG2 cell cytotoxicity, dose response, cytotoxicity control, ATP luminescence, cherry-pick, set 6 (AID 1053125); type: functional, cell-based
[7] = inhibitors of firefly luciferase expression or activity, dose response, H4 neuroglioma cells, luminescence (AID 1990); type: functional, cell-based
[8] = cytotoxicity in HEK-293T cells, dose response, cytotoxicity control for TCR NF-kB inhibitor project, luminescence, T-cell screen hits (AID 489026); type: functional, cell-based;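 also: cells exposed to compound about 14 hours before the viability readout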
[9] = inhibitors of SNCA 5'UTR-driven reporter translation, confirmation, H4 neuroglioma cells, luminescence (AID 1988); type: functional, cell-based
[10] = Luminescence Cell-Based Dose Response HTS to Identify Inhibitors of 5'UTR Stem-Loop Driven Prion Protein mRNA Translation in H4 Neuroglioblastoma Cells. [Related pubchem assays: 1827 (Project Summary), 1813 (Primary HTS)]; type: functional
[11] = biological target: Kappa-type opioid receptor (Homo sapiens, UniProt P41145); assay: Late-stage fluorescence-based cell-based dose response assay for antagonists of kappa opioid receptor 1 (OPRK1).; type: functional
Kappa-type opioid receptor, sequence (P41145 whole entry): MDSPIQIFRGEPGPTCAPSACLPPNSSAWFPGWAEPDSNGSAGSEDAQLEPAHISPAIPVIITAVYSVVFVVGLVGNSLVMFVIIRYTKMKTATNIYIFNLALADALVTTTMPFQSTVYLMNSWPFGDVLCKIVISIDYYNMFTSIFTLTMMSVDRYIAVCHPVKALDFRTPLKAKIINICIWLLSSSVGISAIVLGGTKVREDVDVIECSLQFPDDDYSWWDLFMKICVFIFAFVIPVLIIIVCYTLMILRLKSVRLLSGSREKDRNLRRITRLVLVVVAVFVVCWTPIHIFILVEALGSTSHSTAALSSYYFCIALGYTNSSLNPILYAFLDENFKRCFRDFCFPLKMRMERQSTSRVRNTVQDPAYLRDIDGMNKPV

[12] = biological target: Delta-type opioid receptor (Homo sapiens, UniProt P41143); assay: Late-stage results from the probe development effort to identify antagonists of OPRK1: fluorescence-based cell-based dose response OPRD1 counterscreen, Set 2.; type: functional
Delta-type opioid receptor, sequence (P41143 whole entry): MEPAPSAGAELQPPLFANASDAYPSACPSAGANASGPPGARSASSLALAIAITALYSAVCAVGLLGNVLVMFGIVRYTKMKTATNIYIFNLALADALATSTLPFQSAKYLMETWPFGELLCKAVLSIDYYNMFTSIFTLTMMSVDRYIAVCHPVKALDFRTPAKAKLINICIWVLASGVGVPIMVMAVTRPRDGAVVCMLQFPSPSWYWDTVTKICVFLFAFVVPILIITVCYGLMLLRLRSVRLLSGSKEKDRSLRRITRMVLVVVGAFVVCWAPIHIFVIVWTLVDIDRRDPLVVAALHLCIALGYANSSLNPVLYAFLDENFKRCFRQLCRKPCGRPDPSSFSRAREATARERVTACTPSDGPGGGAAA

[13] = biological target: Sphingosine 1-phosphate receptor 1 (Homo sapiens, UniProt P21453); assay: Late-stage counterscreen for antagonists of kappa opioid receptor 1 (OPRK1): fluorescence-based cell-based dose response assay to identify antagonists of Sphingosine 1-Phosphate Receptor 1 (S1P1).; type: functional
Sphingosine 1-phosphate receptor 1, sequence (P21453 whole entry): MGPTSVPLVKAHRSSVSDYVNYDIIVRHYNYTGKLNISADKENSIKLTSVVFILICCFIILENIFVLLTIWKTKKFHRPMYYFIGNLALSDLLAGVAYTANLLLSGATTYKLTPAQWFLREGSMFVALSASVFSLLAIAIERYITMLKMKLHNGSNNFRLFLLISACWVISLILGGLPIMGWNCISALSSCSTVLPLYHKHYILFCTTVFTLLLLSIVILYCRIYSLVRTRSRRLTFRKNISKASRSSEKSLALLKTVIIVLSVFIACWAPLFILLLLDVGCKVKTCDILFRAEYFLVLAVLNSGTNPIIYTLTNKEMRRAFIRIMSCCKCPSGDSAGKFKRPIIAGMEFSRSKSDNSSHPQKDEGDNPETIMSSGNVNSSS

Mu-type opioid receptor = Mu-type opioid receptor (Homo sapiens, UniProt P35372); assay: Late-stage results from the probe development effort to identify antagonists of OPRK1: luminescence-based cell-based dose response OPRM1 counterscreen, Set 2.; type: functional
Mu-type opioid receptor, sequence (P35372 whole entry): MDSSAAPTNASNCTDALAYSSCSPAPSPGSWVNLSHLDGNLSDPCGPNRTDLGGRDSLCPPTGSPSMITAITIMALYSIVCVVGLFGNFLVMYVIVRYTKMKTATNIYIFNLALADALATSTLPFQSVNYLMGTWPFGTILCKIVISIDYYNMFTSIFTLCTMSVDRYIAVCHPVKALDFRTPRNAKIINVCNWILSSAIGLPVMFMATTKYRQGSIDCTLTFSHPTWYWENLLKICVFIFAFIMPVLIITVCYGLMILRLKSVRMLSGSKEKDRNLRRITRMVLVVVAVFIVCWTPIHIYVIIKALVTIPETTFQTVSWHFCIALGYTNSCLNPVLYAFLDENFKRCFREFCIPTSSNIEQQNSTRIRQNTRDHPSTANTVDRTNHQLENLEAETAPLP

[14] = biological target: Metabotropic glutamate receptor 5 (Rattus norvegicus, UniProt P31424); assay: Identification of a glycine sulfonamide based non-MPEP site positive allosteric potentiator (PAM) of mGlu5 (calcium_assay).; type: functional
Metabotropic glutamate receptor 5, sequence (P31424 whole entry): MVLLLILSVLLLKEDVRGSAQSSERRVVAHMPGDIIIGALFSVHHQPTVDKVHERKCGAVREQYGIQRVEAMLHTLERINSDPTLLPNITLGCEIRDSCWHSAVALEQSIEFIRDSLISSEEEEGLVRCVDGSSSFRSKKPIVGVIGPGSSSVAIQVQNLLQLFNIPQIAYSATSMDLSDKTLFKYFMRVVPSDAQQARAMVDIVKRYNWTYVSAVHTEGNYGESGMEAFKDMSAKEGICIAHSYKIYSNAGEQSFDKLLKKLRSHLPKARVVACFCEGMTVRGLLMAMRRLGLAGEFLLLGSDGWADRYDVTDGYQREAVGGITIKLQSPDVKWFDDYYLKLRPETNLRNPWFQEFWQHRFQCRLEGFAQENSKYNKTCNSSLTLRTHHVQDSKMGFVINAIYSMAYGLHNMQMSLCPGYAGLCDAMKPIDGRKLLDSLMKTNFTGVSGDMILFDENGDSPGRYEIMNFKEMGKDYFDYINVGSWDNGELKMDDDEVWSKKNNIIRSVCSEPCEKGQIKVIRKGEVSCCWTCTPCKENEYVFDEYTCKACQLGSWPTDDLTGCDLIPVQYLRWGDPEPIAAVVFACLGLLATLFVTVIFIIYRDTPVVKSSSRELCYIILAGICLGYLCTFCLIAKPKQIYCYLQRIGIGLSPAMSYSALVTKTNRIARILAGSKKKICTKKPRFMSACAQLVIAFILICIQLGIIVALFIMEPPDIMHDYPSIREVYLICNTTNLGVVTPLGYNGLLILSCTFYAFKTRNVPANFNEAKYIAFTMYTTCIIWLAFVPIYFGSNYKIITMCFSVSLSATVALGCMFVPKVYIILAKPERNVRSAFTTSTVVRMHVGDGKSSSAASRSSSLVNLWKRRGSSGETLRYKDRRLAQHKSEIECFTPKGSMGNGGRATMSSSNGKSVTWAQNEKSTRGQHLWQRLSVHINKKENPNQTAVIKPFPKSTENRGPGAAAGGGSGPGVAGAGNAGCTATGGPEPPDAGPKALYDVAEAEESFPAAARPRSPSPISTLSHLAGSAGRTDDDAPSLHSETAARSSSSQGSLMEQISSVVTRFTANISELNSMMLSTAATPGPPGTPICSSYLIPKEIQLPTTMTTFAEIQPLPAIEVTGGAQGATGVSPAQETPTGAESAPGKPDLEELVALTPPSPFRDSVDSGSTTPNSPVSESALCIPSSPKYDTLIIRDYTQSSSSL

[15] = MITF: Counter assay: A375 proliferation Measured in Cell-Based System Using Plate Reader - 2084-03_Inhibitor_Dose_DryPowder_Activity_Set8.; type: functional; conditions: A-375
[16] = MITF Orthogonal Assay: SK-MEL-5 CTG Assay Measured in Cell-Based System Using Plate Reader - 2084-02_Inhibitor_Dose_DryPowder_Activity_Set7.; type: functional
[17] = TRPM1 promoter luciferase reporter signal decrease, dose response, MITF inhibitor project, cell-based, SK-MEL-5, dry powder, set 8 (AID 624430); type: functional
[18] = P. falciparum Dd2 growth inhibitors, dose response, SYBR Green, cherry-picked samples (AID 1159567); type: functional, cell-based
[19] = YAP1 pathway inhibition via CTGF transcript levels, dose response, cell-based, DLD1 colon cancer, RT-qPCR, cherry-pick (AID 1053122); type: functional; conditions: Cancer cell lines
[20] = inhibitors of clade B AD8 Env fusion, dose response, cell-based, cherry-pick (AID 652062); type: functional;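 also: luciferase signal from cell-cell fusion driven by HIV-1 clade B AD8 Env; potency is for inhibitors of fusion seen as a drop in luminescence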
[21] = inhibitors of HIV Env-driven cell fusion, dose response, cherry-pick (AID 652057); type: functional, cell-based

## CN(C)CC#Cc1cccc(-c2nc(C(=O)NCc3ccc(Oc4ccccc4)cc3)cc3c2[C@H](CCO)N([S+]([O-])C(C)(C)C)C3)c1 (stereo partly drawn)
[1]
  AC50: 0.746 µM (active)

## CC(C)(C)c1ccc(-c2cc(-c3ccccc3O)n[nH]2)cc1
[2]
  IC50: 47.8 µM (inactive)
[3]
  EC50: 1.81 µM (active)
[4]
  IC50: > 69.6 µM (inactive)

## CCN(CC)c1cc(NC(=O)c2ccccc2F)ncn1
Protein Wnt-3a
  IC50: 0.172 µM (active)

## COC(=O)[C@@H]1CCCC[C@@H]1C(=O)N1CCc2ccccc2[C@H]1CN1C(=O)c2ccccc2C1=O
[5]
  AC50: > 52 µM (inactive)

## Cc1ccc(NC(=O)Nc2ccnc(-c3cccnc3)n2)cc1
[6]
  AC50: > 52 µM (inactive)
[7]
  EC50: 0.983 µM (active)
[8]
  IC50: 27.8 µM (inactive)
[9]
  EC50: 0.87 µM (active)
[10]
  EC50: > 120 µM (not active)

## CN(C)c1cc(NC(=O)Nc2ccccc2)c2ccccc2n1
[11]
  IC50: 32.6 µM (inactive)
[12]
  IC50: 69.5 µM (inactive)
[13]
  IC50: 40 µM (inactive)
Mu-type opioid receptor
  IC50: > 50 µM (inactive)

## CS(=O)(=O)N(CC(=O)NCC(F)(F)F)c1ccccc1Cl
[14]
  EC50: 10 µM (inconclusive)

## CC(C)N1CCN(C2=C(Nc3cccc(Br)c3)C(=O)c3ccccc3C2=O)CC1
[15]
  AC50: 48.5 µM (active)
[16]
  AC50: 11.5 µM (active)
[17]
  AC50: 2.52 µM (active)

## N#C[C@@H]1[C@H](c2ccc(-c3cccc(F)c3)cc2)[C@H](CO)N1C(=O)NC1CCCC1
[18]
  AC50: 2.84 µM (active)
[19]
  AC50: > 26 µM (inactive)
[20]
  AC50: 0.768 µM (active)
[21]
  AC50: 39.5 µM (active)
